The values that follow come from patent US20090274662A1, “Methods And Kits For The Treatment Of Inflammatory Bowel Disorder Conditions” (priority 2008, published 2009).

For this data set the following is noted: male, human, in vivo. From the text:
The patient is prescribed a pharmaceutical composition to be taken twice each week. Each unit dose of the pharmaceutical composition comprises 7200 milligrams of delayed-release mesalamine.

For `Nc1ccc(O)c(C(=O)O)c1` [delayed-release mesalamine, 5-amino-2-hydroxybenzoic acid], the “amount of delayed-release mesalamine absorbed into the mucosa and colonic wall” value is given as “equivalent to that of 2400 milligrams mesalamine taken once-daily”.
